The source of these data is US20180110824A1, “Macrocyclic Modulators of the Ghrelin Receptor” (Ocera Therapeutics, Inc., priority 2016, published 2018).

Usually Ki stands for the equilibrium dissociation constant of an inhibitor or competing ligand from its target.

Read-outs that look alike come from different tables or passages of the source.

The experiment addresses T1, human growth hormone secretagogue receptor (hGHS-R1a) (Homo sapiens, UniProt Q92847).
T1 construct: purchased PerkinElmer BioSignal #RBHGHSM; host or cells: HEK-293, stably transfected
The experiment is described as follows: Competitive radioligand binding assay (ghrelin receptor), [125I]-ghrelin displacement on GHS-R/HEK 293 membranes. Particulars: for Ki: read-out: Ki.

T1 sequence (Q92847 whole entry): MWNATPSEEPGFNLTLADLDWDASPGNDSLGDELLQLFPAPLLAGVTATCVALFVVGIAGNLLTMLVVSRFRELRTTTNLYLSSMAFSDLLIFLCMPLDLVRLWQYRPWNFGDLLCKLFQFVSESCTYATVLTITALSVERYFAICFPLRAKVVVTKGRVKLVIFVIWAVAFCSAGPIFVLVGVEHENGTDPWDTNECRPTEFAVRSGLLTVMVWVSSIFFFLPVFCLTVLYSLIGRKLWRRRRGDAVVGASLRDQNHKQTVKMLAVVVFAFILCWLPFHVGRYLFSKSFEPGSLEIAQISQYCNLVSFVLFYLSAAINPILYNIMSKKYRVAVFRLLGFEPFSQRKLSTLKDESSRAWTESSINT

Consider `CC1C(=O)NC(Cc2ccc(F)cc2)C(=O)NCCCc2ccccc2O[C@H](C)CNC(C2CC2)C(=O)N1C` (stereo partly drawn) [compound 298], for which the Ki (Table 3B, binding activity at the human ghrelin receptor) was 0.01 to 0.1 µM and the inhibitory constant (Ki) (Table 4, TFA salts unless otherwise noted) is 0.01 to 0.1 µM. Moreover, the “binding to hGHS-R1a” value (representative binding inhibition curve, FIG. 10) was “binds competitively, reversibly, and with high affinity”.
